Laboratory results as given in paper PMC11286589, “Population pharmacokinetics and exposure–response analyses of SAF-189s in Chinese patients with ALK+/ROS1+ non-small cell lung cancer” (Frontiers in Pharmacology, 2024).
Where two headings read alike, the source gives them in different places.

Tests used:
[1] = tested on: ALK+/ROS1+ advanced NSCLC; assay: Exposure–efficacy analysis (logistic regression, Cox regression, SFBE tumor model); format: in vivo, human; conditions: for Incidence CR: 61 patients
Procedure: All studies were conducted in accordance with the Good Clinical Practice guidelines and Declaration of Helsinki. The protocols were approved by the independent ethics committee of each investigation site, and all subjects provided informed consent. The tumor responses were assessed by the IRC based on the Response Evaluation Criteria in Solid Tumors (RECIST) 1.1 conditions. The exposure–efficacy analyses of SAF-189s were conducted based on data from patients in the SAF001 study to explore the relationships between systemic exposure and efficacy endpoints, including the ORR, PFS, and duration of response (DOR). The exposure–safety analyses of SAF-189s were conducted based on data from patients in the SAF001 study to explore the relationships between the systemic exposure and safety endpoints, including the adverse events (AEs) of interest. In these studies, the SAF-189s plasma concentrations were analyzed using validated liquid chromatography tandem mass spectrometry within the assay range of 0.5–150 ng mL^–1.
The exposure–efficacy analysis entails evaluation of the relationships between the individual SAF-189s exposures and efficacy endpoints. These efficacy endpoints include the ORR, PFS, DOR, and tumor size. In Eq. 1, the Stein-Fojo biexponential (SFBE) model was used to characterize the tumor shrinkage (mean shrinkage rate, KS) and tumor growth inhibition (mean regrowth rate, KG) parameters to compute the sum of longest lesion diameters (SOD). SODij= It≤0×SOD0i×expKGi×tij+It>0×SOD0i×exp−KSi×tij+expKGi×tij−1+eij. (1)
The individual post hoc PK parameters from the final PopPK model and the most prevalent dosage were used to calculate Cmin,ss and AUCss at steady state. The exposure was assessed for its relationship with the ORR using a logistic regression model and with PFS/DOR using the Cox regression model. The individual model parameter estimates (KGi, KSi) were plotted versus Cmin, ss_i to explore the relationships between exposure and tumor growth.

[2] = no reference given, cited from earlier work
[3] = set-up: method as in Qin et al., 2023; conditions: ref Qin et al., 2023, cited from earlier work
CYP3A = conditions: no reference given; cited from earlier work
[4] = tested on: ALK+/ROS1+ advanced NSCLC; assay: Phase I/II study (SAF001, NCT04237805): tumor response, IRC, RECIST 1.1; format: in vivo, human
Description: A first-in-human phase I/II study (NCT04237805) enrolled patients with advanced ALK+/ROS1+ NSCLC with or without asymptomatic CNS metastases. […] The population PK analysis included data from one phase I study of SAF-189s conducted with healthy subjects (study STL31147; n = 24) and one phase I/II study conducted with Chinese patients having ALK+/ROS1+ advanced NSCLC (study SAF001; n = 299). STL31147 was a single-center, randomized, open-label, two-period (fed and fasting), and two-sequence crossover study on healthy Chinese adults. The volunteers received SAF-189s at a dose of 160 mg orally once in each period, with a washout period of 14 days. Blood samples (3 mL) were collected after each SAF-189s administration at 0 (predose), 1, 2, 3, 4, 6, 8, 10, 12, 24, 48, 72, 120, and 168 h post dosing. SAF001 was a multicenter, open-label, and single-arm phase I/II study to evaluate the safety, tolerability, pharmacokinetics, and antitumor activity of SAF-189s in patients with advanced ALK+ NSCLC (phase I) and ALK+/ROS1+ NSCLC (phase II). In the dose escalation portion, the study treatment included a single-agent 3-day PK run-in period and a continuous treatment period. The dosing regimens were 20, 40, 80, 120, 160, and 210 mg QD for 21 days in 21-day cycles during the continuous treatment period. In phase II, the patients received 80, 120, 160, and 210 mg of SAF-189s (phase IIa) or 160 mg (phase IIb) QD over 21-day cycles. All studies were conducted in accordance with the Good Clinical Practice guidelines and Declaration of Helsinki. The protocols were approved by the independent ethics committee of each investigation site, and all subjects provided informed consent. The tumor responses were assessed by the IRC based on the Response Evaluation Criteria in Solid Tumors (RECIST) 1.1 conditions. The exposure–efficacy analyses of SAF-189s were conducted based on data from patients in the SAF001 study to explore the relationships between systemic exposure and efficacy endpoints, including the ORR, PFS, and duration of response (DOR). The exposure–safety analyses of SAF-189s were conducted based on data from patients in the SAF001 study to explore the relationships between the systemic exposure and safety endpoints, including the adverse events (AEs) of interest. In these studies, the SAF-189s plasma concentrations were analyzed using validated liquid chromatography tandem mass spectrometry within the assay range of 0.5–150 ng mL^–1.

efflux transporter P-gp = conditions: in vitro studies, no reference given; cited from earlier work
[5] = Cmin,ss quartile 1, 61 patients
[6] = Cmin,ss quartile 2, 61 patients
[7] = Cmin,ss quartile 3, 61 patients
[8] = Cmin,ss quartile 4, 61 patients
[9] = parameter Cmin,ss, 192 patients, p 0.251
[10] = parameter Cmin,ss, 244 patients, p 0.059
[11] = high-fat meal vs fasted, single dose 160 mg
[12] = single dose 160 mg, unaffected by food

Structure (SMILES): Cc1cc(Nc2ncc(Cl)c(Nc3ccccc3S(=O)(=O)C(C)C)n2)c2c(c1C1CCN(C)CC1)C[C@@H](C)O2 [SAF-189s]
- Incidence CR ([1]; Cmin,ss quartile 1 (18–60.7 ng mL^–1)): 1 (1.64) N (%)
- Incidence NE [1, 5]: 0 (0.00) N (%)
- Incidence PD [1, 5]: 3 (4.92) N (%)
- Incidence PR [1, 5]: 53 (86.89) N (%)
- Incidence SD [1, 5]: 4 (6.56) N (%)
- Incidence CR ([1]; Cmin,ss quartile 2 (60.7–79 ng mL^–1)): 0 (0.00) N (%)
- Incidence NE [1, 6]: 0 (0.00) N (%)
- Incidence PD [1, 6]: 4 (6.56) N (%)
- Incidence PR [1, 6]: 44 (72.13) N (%)
- Incidence SD [1, 6]: 13 (21.31) N (%)
- Incidence CR ([1]; Cmin,ss quartile 3 (79–108 ng mL^–1)): 0 (0.00) N (%)
- Incidence NE [1, 7]: 0 (0.00) N (%)
- Incidence PD [1, 7]: 2 (3.28) N (%)
- Incidence PR [1, 7]: 47 (77.05) N (%)
- Incidence SD [1, 7]: 12 (19.67) N (%)
- Incidence CR ([1]; Cmin,ss quartile 4 (108–182 ng mL^–1)): 1 (1.64) N (%)
- Incidence NE [1, 8]: 0 (0.00) N (%)
- Incidence PD [1, 8]: 3 (4.92) N (%)
- Incidence PR [1, 8]: 46 (75.41) N (%)
- Incidence SD [1, 8]: 11 (18.03) N (%)
- odds ratio (OR), probability of achieving ORR vs Cmin,ss ([1]; logistic regression, all patients (n = 244), p = 0.084): 0.556
- Cox regression estimate, DOR [1, 9]: 0.0059
- Hazard ratio (95% CI), DOR [1, 9]: 1.006 (0.996–1.016)
- Cox regression estimate, PFS [1, 10]: 0.0071
- Hazard ratio (95% CI), PFS [1, 10]: 1.007 (1.000–1.015)
- tumor size after initiation of treatment ([1]; tumor growth inhibition (SFBE) model, most patients): decreased rapidly
- permeability ([2]; BCS classification): low permeability
- solubility ([2]; BCS classification): low solubility
- BCS class [2]: BCS IV
- intersubject variability AUC0-t ([3]; fasted): 33.8%
- intersubject variability AUC0-∞ ([3]; fasted): 34.6%
- intersubject variability Cmax ([3]; fasted): 23.0%
- intersubject variability AUC0-t ([3]; fed): 31.3%
- intersubject variability AUC0-∞ ([3]; fed): 32.8%
- intersubject variability Cmax ([3]; fed): 19.7%
- geometric mean ratio AUC0-t [3, 11]: 105.1%
- geometric mean ratio Cmax [3, 11]: 109.1%
- Tmax (median) [3, 12]: 6 h
- t½ (mean) [3, 12]: around 35 h
- CYP3A substrate (CYP3A): substrate of CYP3A
- ORR ([4]; 160-mg dose group, ROS1+ treatment-naive patients (n = 59)): 89.83%
- ORR ([4]; ALK+ and ROS1+ patients (n = 244)): 78.69%
- ORR ([4]; ROS1+ treatment-naive subgroup (n = 68)): 91.18%
- ORR ([4]; ROS1+ treatment-resistant patients (n = 32)): 40.62%
- P-gp inhibitor (efflux transporter P-gp): inhibitor
- P-gp substrate (efflux transporter P-gp): substrate
